US20230365488A1, “TRUXILLIC ACID MONOESTER-DERIVATIVES AS SELECTIVE FABP5 INHIBITORS AND PHARMACEUTICAL COMPOSITIONS AND USES THEREOF” (The Research Foundation for The State University of New York, priority 2020, published 2023)
Blank lines part the entries; values can stand above or below the compound they belong to.

Key:
FABP3 = FABP3 (Homo sapiens (Human), UniProt P05413); test: FABP3 fluorescent probe displacement binding assay; details: average ± S.E. of at least three independent experiments
FABP7 = FABP7 (Homo sapiens (Human), UniProt O15540); test: FABP7 fluorescent probe displacement binding assay; details: average ± S.E. of at least three independent experiments
[1] = test system: PC3 cells implanted subcutaneously; test: Subcutaneous PC3 tumor growth in nude mice; assay type: in vivo, male BALB/c nude mice; details: for tumor growth: ip
22Rv1 cells = test: MTT cytotoxicity and taxane combination (CI) analysis, 22Rv1 (Example 6); assay type: cell-based, human; details: for CI value / Fa value / Relationship / IC50: 22Rv1; for CI value / Fa value / Relationship: 1y 7.5 μM or 1w 1.0 μM; for cytotoxicity of combination with docetaxel or cabazitaxel versus each drug administered independently: 22Rv1 cells; for IC50: Homo sapiens, MTT, 72-hour incubation, single agent
[2] = MTT cytotoxicity, WI-38 (Example 6); assay type: cell-based; details: human, WI-38 cells (normal lung cell line), 72-hour incubation
[3] = MTT cytotoxicity, RWPE-1 (Example 6); assay type: cell-based; details: human, RWPE-1 cells (normal prostate cell line), 72-hour incubation
DU-145 cells = test: MTT cytotoxicity and taxane combination (CI) analysis, DU-145 (Example 6); assay type: cell-based, human; details: for CI value / Fa value / Relationship: 1y 7.5 μM or 1w 1.0 μM
PC3 cells = test: MTT cytotoxicity and taxane combination (CI) analysis, PC3 (Example 6); assay type: cell-based, human; details: for IC50: Homo sapiens, PC-3, MTT, 72-hour incubation, single agent; for CI value / Fa value / Relationship: PC3, 1y 7.5 μM or 1w 1.0 μM; for cytotoxicity of combination with docetaxel or cabazitaxel versus each drug administered independently: PC3 cells
[4] = 20 mg/kg, once daily, from day 15, versus vehicle
[5] = combination with cabazitaxel 0.03 nM
[6] = combination with cabazitaxel 0.3 nM
[7] = combination with cabazitaxel 3.0 nM
[8] = combination with docetaxel 0.03 nM
[9] = combination with docetaxel 0.3 nM
[10] = combination with docetaxel 3.0 nM
[11] = DU-145, combination with cabazitaxel 0.03 nM
[12] = DU-145, combination with cabazitaxel 0.3 nM
[13] = DU-145, combination with cabazitaxel 3.0 nM
[14] = DU-145, combination with docetaxel 0.03 nM
[15] = DU-145, combination with docetaxel 0.3 nM
[16] = DU-145, combination with docetaxel 3.0 nM

FABP3, sequence (P05413 whole entry): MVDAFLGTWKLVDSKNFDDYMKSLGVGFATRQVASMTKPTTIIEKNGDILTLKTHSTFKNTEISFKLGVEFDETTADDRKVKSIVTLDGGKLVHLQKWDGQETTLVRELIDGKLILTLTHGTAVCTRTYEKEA
FABP7, sequence (O15540 whole entry): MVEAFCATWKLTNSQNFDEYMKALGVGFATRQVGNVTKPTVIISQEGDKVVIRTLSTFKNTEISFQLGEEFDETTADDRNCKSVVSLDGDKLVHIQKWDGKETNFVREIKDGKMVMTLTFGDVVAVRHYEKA

Ki (FABP3): 25.3 ± 4.57 µM
Ki (FABP7): 4.26 ± 0.41 µM
Structure (SMILES): COc1ccccc1[C@H]1[C@H](C(=O)O)[C@H](c2ccccc2OC)[C@H]1C(=O)OCC1c2ccccc2-c2ccccc21 (racemic) [Compound 1w]
tumor growth, coadministration with docetaxel ([1]; 20 mg/kg ip daily in combination with docetaxel 5 mg/kg weekly, comparable in magnitude to the 10 mg/kg docetaxel dose): greater inhibition of tumor growth than treatment with each compound alone
tumor growth [1, 4]: significantly reduced tumor growth
CI value (22Rv1 cells; [5]): 0.731
Fa value (22Rv1 cells; [5]): 0.577
Relationship (22Rv1 cells; [5]): synergistic
CI value (22Rv1 cells; [6]): 0.549
Fa value (22Rv1 cells; [6]): 0.728
Relationship (22Rv1 cells; [6]): synergistic
CI value (22Rv1 cells; [7]): 0.659
Fa value (22Rv1 cells; [7]): 0.823
Relationship (22Rv1 cells; [7]): synergistic
CI value (22Rv1 cells; [8]): 1.673
Fa value (22Rv1 cells; [8]): 0.457
CI value (22Rv1 cells; [9]): 0.373
Fa value (22Rv1 cells; [9]): 0.744
Relationship (22Rv1 cells; [9]): synergistic
CI value (22Rv1 cells; [10]): 0.267
Fa value (22Rv1 cells; [10]): 0.905
Relationship (22Rv1 cells; [10]): synergistic
cytotoxicity of combination with docetaxel or cabazitaxel versus each drug administered independently (22Rv1 cells): greater cytotoxicity
IC50 (22Rv1 cells): 3.1 µM
IC50 at 72 h [2]: 29.6 µM
IC50 at 72 h [3]: 20.6 µM
CI value (DU-145 cells; [11]): 0.449
Fa value (DU-145 cells; [11]): 0.464
Relationship (DU-145 cells; [11]): synergistic
CI value (DU-145 cells; [12]): 0.300
Fa value (DU-145 cells; [12]): 0.716
Relationship (DU-145 cells; [12]): synergistic
CI value (DU-145 cells; [13]): 0.194
Fa value (DU-145 cells; [13]): 0.882
Relationship (DU-145 cells; [13]): synergistic
CI value (DU-145 cells; [14]): 4.473
Fa value (DU-145 cells; [14]): 0.516
CI value (DU-145 cells; [15]): 2.697
Fa value (DU-145 cells; [15]): 0.676
CI value (DU-145 cells; [16]): 0.445
Fa value (DU-145 cells; [16]): 0.935
Relationship (DU-145 cells; [16]): synergistic
cytotoxicity of combination with docetaxel or cabazitaxel versus each drug administered independently (DU-145 cells; DU-145 cells): greater cytotoxicity
IC50 (DU-145 cells; Homo sapiens, DU-145, MTT, 72-hour incubation, single agent): 3.3 µM
IC50 (PC3 cells): 6.3 µM
CI value (PC3 cells; [5]): 0.899
Fa value (PC3 cells; [5]): 0.379
Relationship (PC3 cells; [5]): synergistic
CI value (PC3 cells; [6]): 0.942
Fa value (PC3 cells; [6]): 0.420
Relationship (PC3 cells; [6]): synergistic
CI value (PC3 cells; [7]): 0.373
Fa value (PC3 cells; [7]): 0.853
Relationship (PC3 cells; [7]): synergistic
CI value (PC3 cells; [8]): 0.710
Fa value (PC3 cells; [8]): 0.402
Relationship (PC3 cells; [8]): synergistic
CI value (PC3 cells; [9]): 0.889
Fa value (PC3 cells; [9]): 0.432
Relationship (PC3 cells; [9]): synergistic
CI value (PC3 cells; [10]): 0.394
Fa value (PC3 cells; [10]): 0.700
Relationship (PC3 cells; [10]): synergistic
cytotoxicity of combination with docetaxel or cabazitaxel versus each drug administered independently (PC3 cells): greater cytotoxicity

Ki (FABP3): 0.69 ± 0.17 µM
Ki (FABP7): 0.67 ± 0.04 µM
Structure (SMILES): COc1ccccc1[C@H]1[C@H](C(=O)O)[C@H](c2ccccc2OC)[C@H]1C(=O)Oc1cccc2ccccc12 (racemic) [Compound 1y]
tumor growth [1, 4]: significantly reduced tumor growth
CI value (22Rv1 cells; [5]): 0.707
Fa value (22Rv1 cells; [5]): 0.777
Relationship (22Rv1 cells; [5]): synergistic
CI value (22Rv1 cells; [6]): 0.396
Fa value (22Rv1 cells; [6]): 0.899
Relationship (22Rv1 cells; [6]): synergistic
CI value (22Rv1 cells; [7]): 0.003
Fa value (22Rv1 cells; [7]): 0.998
Relationship (22Rv1 cells; [7]): synergistic
CI value (22Rv1 cells; [8]): 3.846
Fa value (22Rv1 cells; [8]): 0.795
CI value (22Rv1 cells; [9]): 0.003
Fa value (22Rv1 cells; [9]): 0.904
Relationship (22Rv1 cells; [9]): synergistic
CI value (22Rv1 cells; [10]): 0.005
Fa value (22Rv1 cells; [10]): 0.999
Relationship (22Rv1 cells; [10]): synergistic
cytotoxicity of combination with docetaxel or cabazitaxel versus each drug administered independently (22Rv1 cells): greater cytotoxicity
IC50 (22Rv1 cells): 10.1 µM
IC50 at 72 h [2]: 29.4 µM
IC50 at 72 h [3]: 26 µM
IC50 (PC3 cells): 11.4 µM
CI value (PC3 cells; [5]): 0.0001
Fa value (PC3 cells; [5]): 0.998
Relationship (PC3 cells; [5]): synergistic
CI value (PC3 cells; [6]): 0.0001
Fa value (PC3 cells; [6]): 0.999
Relationship (PC3 cells; [6]): synergistic
CI value (PC3 cells; [7]): 0.0001
Fa value (PC3 cells; [7]): 0.999
Relationship (PC3 cells; [7]): synergistic
CI value (PC3 cells; [8]): 0.897
Fa value (PC3 cells; [8]): 0.786
Relationship (PC3 cells; [8]): synergistic
CI value (PC3 cells; [9]): 0.009
Fa value (PC3 cells; [9]): 0.950
Relationship (PC3 cells; [9]): synergistic
CI value (PC3 cells; [10]): 0.160
Fa value (PC3 cells; [10]): 0.992
Relationship (PC3 cells; [10]): synergistic
cytotoxicity of combination with docetaxel or cabazitaxel versus each drug administered independently (PC3 cells): greater cytotoxicity

Structure (SMILES): CC(=O)O[C@@]12CO[C@@H]1C[C@H](O)[C@@]1(C)C(=O)[C@H](O)C3=C(C)[C@@H](OC(=O)[C@H](O)[C@@H](NC(=O)OC(C)(C)C)c4ccccc4)C[C@@](O)([C@@H](OC(=O)c4ccccc4)[C@H]21)C3(C)C [docetaxel, reference compound]
tumor growth ([1]; 10 mg/kg, once weekly): near complete inhibition of growth
